Reference: patent US10851102B2, “Imidazole and triazole containing bicyclic compounds as JAK inhibitors” (THERAVANCE BIOPHARMA R&D IP, LLC, priority 2019, dated 2020)
Where two headings read alike, the source gives them in different places.

Key:
[1] = tested on: IL-2 stimulated pSTAT5 in Tall-1 T cells (JAK3); test: Cellular JAK3 potency assay: inhibition of IL-2 stimulated pSTAT5 in Tall-1 T cells; type: cell-based; settings: IL-2 300 ng/ml, pSTAT5 AlphaLisa, Tall-1 human T cell line; read-out: Tall-1 (pIC50) (converted)
Method: Assay 2: Cellular JAK3 Potency Assay: Inhibition of IL-2 Stimulated pSTAT5 in Tall-1 T Cells
The potency of test compounds for inhibition of interleukin-2 (IL-2) stimulated STATS phosphorylation was measured in the Tall-1 human T cell line (DSMZ) using AlphaLisa. Because IL-2 signals through JAK3, this assay provides a measure of JAK3 cellular potency.
Phosphorylated STATS was measured via the AlphaLISA SureFire Ultra pSTAT5 (Tyr694/699) kit (PerkinElmer).
Human T cells from the Tall-1 cell line were cultured in a 37° C., 5% CO2 humidified incubator in RPMI (Life Technologies) supplemented with 15% Heat Inactivated Fetal Bovine Serum (FBS, Life Technologies), 2 mM Glutamax (Life Technologies), 25 mM HEPES (Life Technologies) and 1× Pen/Strep (Life Technologies). Compounds were serially diluted in DMSO and dispensed acoustically to empty wells. Assay media (phenol red-free DMEM (Life Technologies) supplemented with 10% FBS (ATCC)) was dispensed (4 μL/well) and plates shaken at 900 rpm for 10 mins. Cells were seeded at 45,000 cells/well in assay media (4 μL/well), and incubated at 37° C., 5% CO2 for 1 hour, followed by the addition of IL-2 (R&D Systems; final concentration 300 ng/ml) in pre-warmed assay media ([…]) for 30 minutes. After cytokine stimulation, cells were lysed with 6 ul of 3× AlphaLisa Lysis Buffer (PerkinElmer) containing 1× PhosStop and Complete tablets (Roche). The lysate was shaken at 900 rpm for 10 minutes at room temperature (RT). Phosphorylated STATS was measured via the pSTAT5 AlphaLisa kit (PerkinElmer). Freshly prepared acceptor bead mixture was dispensed onto lysate (5 μL) under green filtered <100 lux light. Plates were shaken at 900 rpm for 2 mins, briefly spun down, and incubated for 2 hrs at RT in the dark. Donor beads were dispensed (5 μL) under green filtered <100 lux light. Plates were shaken at 900 rpm for 2 minutes, briefly spun down, and incubated overnight at RT in the dark. Luminescence was measured with excitation at 689 nm and emission at 570 nm using an EnVision plate reader (PerkinElmer) under green filtered <100 lux light.
To determine the inhibitory potency of test compounds in response to IL-2, the average emission intensity of beads bound to pSTAT5 was measured in a human T cell line. IC50 values were determined from analysis of the inhibition curves of signal intensity versus compound concentration. Data are expressed as pIC50 (negative decadic logarithm IC50) values (mean±standard deviation).

JAK3 = JAK3 (Homo sapiens (Human), UniProt P52333); test: Biochemical JAK and Tyk2 kinase assays (LanthaScreen): JAK3; settings: for JAK3 (pKi)-JAK1 (pKi): difference of pKi values, selectivity JAK3 over JAK1; for Ki: read-out: JAK 3 (pKi) (converted)
JAK3, sequence (P52333 whole entry): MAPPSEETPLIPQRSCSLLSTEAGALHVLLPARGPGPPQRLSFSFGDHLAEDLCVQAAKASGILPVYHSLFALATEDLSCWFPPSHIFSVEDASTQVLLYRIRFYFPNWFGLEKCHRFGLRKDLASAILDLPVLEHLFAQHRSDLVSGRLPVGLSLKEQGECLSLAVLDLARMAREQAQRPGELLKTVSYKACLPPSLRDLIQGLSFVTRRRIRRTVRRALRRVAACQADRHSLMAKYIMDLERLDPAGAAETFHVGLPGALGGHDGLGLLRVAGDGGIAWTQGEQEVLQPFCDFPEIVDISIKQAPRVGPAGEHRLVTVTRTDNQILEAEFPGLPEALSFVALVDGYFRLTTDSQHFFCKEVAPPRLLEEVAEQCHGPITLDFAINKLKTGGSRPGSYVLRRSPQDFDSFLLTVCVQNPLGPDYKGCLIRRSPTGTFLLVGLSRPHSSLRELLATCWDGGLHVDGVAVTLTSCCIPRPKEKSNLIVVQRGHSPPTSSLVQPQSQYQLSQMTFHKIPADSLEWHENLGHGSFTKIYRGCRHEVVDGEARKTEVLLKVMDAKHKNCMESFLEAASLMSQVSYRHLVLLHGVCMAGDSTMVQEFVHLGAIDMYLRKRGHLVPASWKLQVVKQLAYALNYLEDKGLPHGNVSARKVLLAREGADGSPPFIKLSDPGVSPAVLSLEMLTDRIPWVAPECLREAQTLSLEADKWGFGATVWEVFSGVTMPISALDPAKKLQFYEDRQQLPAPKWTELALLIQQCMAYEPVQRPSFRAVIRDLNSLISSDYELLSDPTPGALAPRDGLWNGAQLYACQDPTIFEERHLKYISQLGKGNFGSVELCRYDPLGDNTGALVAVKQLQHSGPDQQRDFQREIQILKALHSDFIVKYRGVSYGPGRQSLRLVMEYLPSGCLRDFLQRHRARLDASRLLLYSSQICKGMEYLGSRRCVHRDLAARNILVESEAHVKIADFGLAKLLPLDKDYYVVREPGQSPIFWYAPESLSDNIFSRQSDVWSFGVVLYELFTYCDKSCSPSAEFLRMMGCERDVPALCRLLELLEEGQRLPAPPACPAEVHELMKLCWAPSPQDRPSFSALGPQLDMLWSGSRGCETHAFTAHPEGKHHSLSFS
Method: (§1) Assay 1: Biochemical JAK and Tyk2 Kinase Assays
(§2) A panel of four LanthaScreen JAK biochemical assays (JAK1, 2, 3 and Tyk2) were carried in a common kinase reaction buffer (50 mM HEPES, pH 7.5, 0.01% Brij-35, 10 mM MgCl2, and 1 mM EGTA). Recombinant GST-tagged JAK enzymes and a GFP-tagged STAT1 peptide substrate were obtained from Life Technologies.
(§3) Serially or discretely diluted compounds were pre-incubated with each of the four JAK enzymes and the substrate in white 384-well microplates (Corning) at ambient temperature for 1 h. ATP was subsequently added to initiate the kinase reactions in 10 μL total volume, with 1% DMSO. […] Kinase reactions were allowed to proceed for 1 hour at ambient temperature before a 10 μL preparation of EDTA (10 mM final concentration) and Tb-anti-pSTAT1 (pTyr701) antibody (Life Technologies, 2 nM final concentration) in TR-FRET dilution buffer (Life Technologies) was added. The plates were allowed to incubate at ambient temperature for 1 h before being read on the EnVision reader (Perkin Elmer). Emission ratio signals (520 nm/495 nm) were recorded and utilized to calculate the percent inhibition values based on DMSO and background controls.
(§4) For dose-response analysis, percent inhibition data were plotted vs. compound concentrations, and IC50 values were determined from a 4-parameter robust fit model with the Prism software (GraphPad Software). Results were expressed as pIC50 (negative logarithm of IC50) and subsequently converted to pKi (negative logarithm of dissociation constant, Ki) using the Cheng-Prusoff equation.

JAK1 = JAK1 (Homo sapiens (Human), UniProt P23458); test: Biochemical JAK and Tyk2 kinase assays (LanthaScreen): JAK1; settings: 1 h pre-incubation, ATP at Km; pIC50 converted to pKi by Cheng-Prusoff
JAK1, sequence (P23458 whole entry): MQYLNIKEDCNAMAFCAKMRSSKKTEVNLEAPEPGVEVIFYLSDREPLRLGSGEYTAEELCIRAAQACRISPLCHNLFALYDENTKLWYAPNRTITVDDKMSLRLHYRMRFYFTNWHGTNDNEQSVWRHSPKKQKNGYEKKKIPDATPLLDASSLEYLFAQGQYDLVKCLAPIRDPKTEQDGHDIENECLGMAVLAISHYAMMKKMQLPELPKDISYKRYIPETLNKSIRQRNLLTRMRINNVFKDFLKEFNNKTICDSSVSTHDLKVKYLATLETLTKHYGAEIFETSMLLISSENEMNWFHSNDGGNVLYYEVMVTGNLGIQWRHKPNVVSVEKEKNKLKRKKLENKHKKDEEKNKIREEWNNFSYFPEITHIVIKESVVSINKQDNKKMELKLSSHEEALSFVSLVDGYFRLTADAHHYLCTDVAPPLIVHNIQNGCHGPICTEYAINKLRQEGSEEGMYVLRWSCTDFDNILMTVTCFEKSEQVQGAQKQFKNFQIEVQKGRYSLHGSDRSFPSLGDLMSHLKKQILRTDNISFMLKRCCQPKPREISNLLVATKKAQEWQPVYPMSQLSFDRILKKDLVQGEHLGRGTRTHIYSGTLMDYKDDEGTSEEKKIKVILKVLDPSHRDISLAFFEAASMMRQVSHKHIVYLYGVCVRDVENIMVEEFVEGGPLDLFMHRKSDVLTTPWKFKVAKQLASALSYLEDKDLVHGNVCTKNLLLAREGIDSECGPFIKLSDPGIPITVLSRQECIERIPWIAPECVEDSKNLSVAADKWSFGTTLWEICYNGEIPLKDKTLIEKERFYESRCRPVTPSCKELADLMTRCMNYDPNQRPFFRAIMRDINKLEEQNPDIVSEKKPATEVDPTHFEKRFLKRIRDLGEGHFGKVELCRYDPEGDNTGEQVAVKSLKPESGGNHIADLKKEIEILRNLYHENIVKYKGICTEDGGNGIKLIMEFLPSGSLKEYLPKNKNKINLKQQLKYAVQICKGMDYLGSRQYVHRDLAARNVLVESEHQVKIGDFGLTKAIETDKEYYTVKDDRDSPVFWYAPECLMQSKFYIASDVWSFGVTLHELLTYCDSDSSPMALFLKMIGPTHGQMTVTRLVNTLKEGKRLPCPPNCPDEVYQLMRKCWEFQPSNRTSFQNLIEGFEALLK
Method: as §1, §2, §3, §4

[2] = 1 h pre-incubation, ATP at Km, pIC50 converted to pKi by Cheng-Prusoff

SMILES	IC50 [1] [nM]	JAK 3 (pKi) (JAK3; [2])	JAK3 (pKi)-JAK1 (pKi) (JAK3)	JAK 1 (pKi) (JAK1)	Ki (JAK3; [2]) [nM]	Ki (JAK1) [nM]	Ki (JAK3) [nM]
C=CC(=O)N1CC(COc2cc(-c3ccc(O)cc3)cn3cnnc23)C1 [Example 5, 1-(3-(((6-(4-hydroxyphenyl)-[1,2,4]triazolo[4,3-a]pyridin-8-yl)oxy)methyl)azetidin-1-yl)prop-2-en-1-one]	200 to 1000	A (A represents a pKi value≥10 (Ki≤0.1 nM))	A (A represents a value of 3 or above)	E (E represents a pKi value of 7 or below (Ki of 100 nM or above))	–	–	–
C=CC(=O)N1[C@@H]2CC[C@H]1C[C@H](Oc1cc(-c3ccc(O)cc3)cn3cncc13)C2 [Example 10, 1-((1R,3S,5S)-3-((6-(4-hydroxyphenyl)imidazo[1,5-a]pyridin-8-yl)oxy)-8-azabicyclo[3.2.1]octan-8-yl)prop-2-en-1-one]	31.6 to 200	–	–	–	–	–	–
C=CC(=O)N1CCC(N(C)c2cc(-c3ccc(O)cc3)cn3cncc23)CC1 [Example 17]	–	C (C represents a pKi value between 8 and 9 (Ki between 10 nM and 1 nM))	B (B represents a value of 2.3 to 3)	E (E represents a pKi value of 7 or below (Ki of 100 nM or above))	–	–	–
CCc1cc(O)c(F)cc1-c1cc(O[C@H]2CCCN(C(=O)/C=C/CN(C)C)C2)c2cncn2c1 [Example 18]	–	–	B (B represents a value of 2.3 to 3)	E (E represents a pKi value of 7 or below (Ki of 100 nM or above))	0.1 to 1	–	–
CN(C)C/C=C/C(=O)N1CC(COc2cc(-c3ccc(O)cc3)cn3cncc23)C1 [Example 19]	200 to 1000	–	A (A represents a value of 3 or above)	E (E represents a pKi value of 7 or below (Ki of 100 nM or above))	0.1 to 1	–	–
CN(C)C/C=C/C(=O)N1CC(COc2cc(-c3ccc(O)c(F)c3)cn3cncc23)C1 [Example 22]	200 to 1000	–	A (A represents a value of 3 or above)	E (E represents a pKi value of 7 or below (Ki of 100 nM or above))	0.1 to 1	–	–
CCc1cc(O)ccc1-c1cc(OCC2CN(C(=O)/C=C/CN(C)C)C2)c2cncn2c1 [Example 25]	200 to 1000	–	A (A represents a value of 3 or above)	E (E represents a pKi value of 7 or below (Ki of 100 nM or above))	0.1 to 1	–	–
C=CC(=O)N1CC(CSc2cc(-c3ccc(O)cc3)cn3cncc23)C1 [Example 29]	200 to 1000	–	A (A represents a value of 3 or above)	E (E represents a pKi value of 7 or below (Ki of 100 nM or above))	0.1 to 1	–	–
C=CC(=O)N1CC(COc2cc(-c3cc(F)c(O)c(F)c3)cn3cncc23)C1 [Example 32]	200 to 1000	–	A (A represents a value of 3 or above)	E (E represents a pKi value of 7 or below (Ki of 100 nM or above))	0.1 to 1	–	–
C=CC(=O)N1CC(COc2cc(-c3cc(C)c(O)c(C)c3)cn3cncc23)C1 [Example 35]	200 to 1000	–	A (A represents a value of 3 or above)	E (E represents a pKi value of 7 or below (Ki of 100 nM or above))	0.1 to 1	–	–
C=CC(=O)N1[C@@H]2CC[C@H]1C[C@@H](Oc1cc(-c3ccc(O)cc3)cn3cncc13)C2 [Example 36]	31.6 to 200	A (A represents a pKi value≥10 (Ki≤0.1 nM))	A (A represents a value of 3 or above)	E (E represents a pKi value of 7 or below (Ki of 100 nM or above))	–	–	–
C=CC(=O)N1CC[C@H](Oc2cc(-c3ccc(O)cc3)cn3cncc23)C[C@@H]1C [Example 38]	31.6 to 200	–	A (A represents a value of 3 or above)	E (E represents a pKi value of 7 or below (Ki of 100 nM or above))	0.1 to 1	–	–
C=CC(=O)N1[C@H](C)C[C@H](Oc2cc(-c3ccc(O)cc3)cn3cncc23)C[C@@H]1C [Example 40]	200 to 1000	–	B (B represents a value of 2.3 to 3)	E (E represents a pKi value of 7 or below (Ki of 100 nM or above))	1 to 10	–	–
C=CC(=O)N1CC(COc2cc(-c3ccc(O)cc3C(F)(F)F)cn3cncc23)C1 [Example 42]	200 to 1000	–	A (A represents a value of 3 or above)	E (E represents a pKi value of 7 or below (Ki of 100 nM or above))	0.1 to 1	–	–
C=CC(=O)N1CC(COc2cc(-c3cc(C)c(O)cc3C)cn3cncc23)C1 [Example 43]	31.6 to 200	–	A (A represents a value of 3 or above)	E (E represents a pKi value of 7 or below (Ki of 100 nM or above))	0.1 to 1	–	–
C=CC(=O)N1CC(COc2cc(-c3ccc(O)cc3OC)cn3cncc23)C1 [Example 45]	200 to 1000	–	A (A represents a value of 3 or above)	E (E represents a pKi value of 7 or below (Ki of 100 nM or above))	0.1 to 1	–	–
C=CC(=O)N1CC2(CCC2Oc2cc(-c3cc(F)c(O)cc3CC)cn3cncc23)C1 (stereo not drawn) [Example 46]	31.6 to 200	–	B (B represents a value of 2.3 to 3)	E (E represents a pKi value of 7 or below (Ki of 100 nM or above))	0.1 to 1	–	–
C=CC(=O)N1CCC(Oc2cc(-c3cc(F)c(O)cc3CC)cn3cncc23)CC1 [Example 47]	≤ 31.6	A (A represents a pKi value≥10 (Ki≤0.1 nM))	B (B represents a value of 2.3 to 3)	–	–	10 to 100	–
C=CC(=O)N1[C@@H]2CC[C@H]1C[C@H](Oc1cc(-c3cc(F)c(O)cc3CC)cn3cncc13)C2 [Example 48]	≤ 31.6	A (A represents a pKi value≥10 (Ki≤0.1 nM))	A (A represents a value of 3 or above)	–	–	10 to 100	–
C=CC(=O)N1CCC(Oc2cc(-c3cc(F)c(O)cc3CC)cn3cncc23)C(F)(F)C1 (stereo not drawn) [Example 49]	≤ 31.6	–	C (C represents a value of 1.8 to 2.3)	–	–	10 to 100	0.1
C=CC(=O)N1[C@@H]2CC[C@H]1C[C@H](Nc1cc(-c3ccc(O)cc3)cn3cncc13)C2 [Example 50]	–	–	B (B represents a value of 2.3 to 3)	E (E represents a pKi value of 7 or below (Ki of 100 nM or above))	1 to 10	–	–
C=CC(=O)N1CCC[C@H](Nc2cc(-c3ccc(O)cc3)cn3cncc23)C1 [Example 51]	–	–	B (B represents a value of 2.3 to 3)	E (E represents a pKi value of 7 or below (Ki of 100 nM or above))	1 to 10	–	–
C=CC(=O)N1CC(CNc2cc(-c3ccc(O)cc3)cn3cncc23)C1 [Example 52]	–	–	B (B represents a value of 2.3 to 3)	E (E represents a pKi value of 7 or below (Ki of 100 nM or above))	1 to 10	–	–
